Data taken from patent publication US10336732B2, “1-heterocyclyl isochromanyl compounds and analogs for treating CNS disorders” (Sunovion Pharmaceuticals Inc., priority 2015, dated 2019).

Test system: mice
Test: Neuropharmacological assay (SmartCube), behavioral signature of compound-treated mice
Assay type: in vivo
Details: i.p. 15 min before behavioral test, most efficacious dose(s) of 3 doses
Text: Neurosci. […] As reported in Roberds, because psychiatric diseases generally result from disorders of cell-cell communication or circuitry, intact systems are useful in detecting improvement in disease-relevant endpoints. These endpoints are typically behavioral in nature, often requiring human observation and interpretation. To facilitate testing of multiple compounds for behavioral effects relevant to psychiatric disease, PsychoGenics, Inc. (Tarrytown, N.Y., “PGI”) developed SmartCube™, an automated system in which behaviors of compound-treated mice are captured by digital video and analyzed with computer algorithms. […] PGI Analytical Systems uses data from SmartCube™ to compare the behavioral signature of a test compound to a database of behavioral signatures obtained using a large set of diverse reference compounds. (The composition of the database as well as validation of the method is further described in Roberds). In this way, the neuropharmacological effects of a test compound can be predicted by similarity to major classes of compounds, such as antipsychotics, anxiolytics and antidepressants.
The SmartCube™ system produces an activity signature indicating the probability that the activity of the test compound at the administered dose matches a given class of neuropharmacological agents. (See, e.g., Roberds, FIGS. 2 and 3). The test compound is simultaneously compared against multiple classes of agents; thus, a separate probability is generated for each behavioral effect measured (e.g., anxiolytic activity, analgesic activity, etc.). In Table 4, these probabilities are reported for each behavioral effect measured as follows:
Provided compounds were dissolved in a mixture of Pharmasolve™ (N-methyl-2-pyrrolidone), polyethylene glycol and propylene glycol, and were injected i.p. 15 min. before the behavioral test. For each compound, injections were administered at 3 different doses. For each behavioral effect measured, results for the most efficacious dose(s) are presented.

Row | Structure (SMILES) | AD: ADHD (probability that behavioral signature matches class) | AG: analgesic (probability that behavioral signature matches class) | AX: anxiolytic (probability that behavioral signature matches class) | CE: cognitive enhancer (probability that behavioral signature matches class) | DP: anti-depressant (probability that behavioral signature matches class) | HA: hallucinogen (probability that behavioral signature matches class) | MS: mood stabilizer (probability that behavioral signature matches class) | PS: anti-psychotic (probability that behavioral signature matches class) | SD: sedative hypnotic (probability that behavioral signature matches class) | UN: uncharacterized CNS activity (probability that behavioral signature matches class)
1 | Cc1cccc2c1[C@H]([C@@H]1CCCN1)OCC2 [Compound I-22, (S)-2-((R)-8-methylisochroman-1-yl)pyrrolidine] | + (LOQ ≤ + <5%) | ++ (5% ≤ ++ <25%) | ++ (5% ≤ ++ <25%) | ++ (5% ≤ ++ <25%) | +++ (25% ≤ +++ <50%) | + (LOQ ≤ + <5%) | + (LOQ ≤ + <5%) | +++ (25% ≤ +++ <50%) | + (LOQ ≤ + <5%) | + (LOQ ≤ + <5%)
2 | Cc1cccc2c1[C@H]([C@H]1CCCN1)OCC2 [Compound I-23, (R)-2-((R)-8-methylisochroman-1-yl)pyrrolidine] | + (LOQ ≤ + <5%) | +++ (25% ≤ +++ <50%) | ++ (5% ≤ ++ <25%) | ++ (5% ≤ ++ <25%) | ++ (5% ≤ ++ <25%) | + (LOQ ≤ + <5%) | ++ (5% ≤ ++ <25%) | +++ (25% ≤ +++ <50%) | ++ (5% ≤ ++ <25%) | + (LOQ ≤ + <5%)
3 | Cc1cccc2c1[C@@H]([C@H]1CCCN1)OCC2 [Compound I-24, (R)-2-((S)-8-methylisochroman-1-yl)pyrrolidine] | + (LOQ ≤ + <5%) | ++ (5% ≤ ++ <25%) | ++ (5% ≤ ++ <25%) | ++ (5% ≤ ++ <25%) | +++ (25% ≤ +++ <50%) | + (LOQ ≤ + <5%) | ++ (5% ≤ ++ <25%) | ++ (5% ≤ ++ <25%) | ++ (5% ≤ ++ <25%) | + (LOQ ≤ + <5%)
4 | Cc1ccc2c(c1)[C@H]([C@@H]1CCCN1)OCC2 [Compound I-25, (S)-2-((R)-7-methylisochroman-1-yl)pyrrolidine] | + (LOQ ≤ + <5%) | +++ (25% ≤ +++ <50%) | ++ (5% ≤ ++ <25%) | ++ (5% ≤ ++ <25%) | ++ (5% ≤ ++ <25%) | + (LOQ ≤ + <5%) | + (LOQ ≤ + <5%) | ++ (5% ≤ ++ <25%) | + (LOQ ≤ + <5%) | ++ (5% ≤ ++ <25%)
5 | Cc1ccc2c(c1)[C@@H]([C@@H]1CCCN1)OCC2 [Compound I-26, (S)-2-((S)-7-methylisochroman-1-yl)pyrrolidine] | + (LOQ ≤ + <5%) | + (LOQ ≤ + <5%) | ++ (5% ≤ ++ <25%) | + (LOQ ≤ + <5%) | + (LOQ ≤ + <5%) | + (LOQ ≤ + <5%) | + (LOQ ≤ + <5%) | + (LOQ ≤ + <5%) | + (LOQ ≤ + <5%) | + (LOQ ≤ + <5%)
6 | Cc1ccc2c(c1)[C@@H]([C@H]1CCCN1)OCC2 [Compound I-27, (R)-2-((S)-7-methylisochroman-1-yl)pyrrolidine] | + (LOQ ≤ + <5%) | ++ (5% ≤ ++ <25%) | +++ (25% ≤ +++ <50%) | ++ (5% ≤ ++ <25%) | ++ (5% ≤ ++ <25%) | + (LOQ ≤ + <5%) | ++ (5% ≤ ++ <25%) | ++ (5% ≤ ++ <25%) | + (LOQ ≤ + <5%) | + (LOQ ≤ + <5%)
7 | Cc1ccc2c(c1)[C@H]([C@H]1CCCN1)OCC2 [Compound I-28, (R)-2-((R)-7-methylisochroman-1-yl)pyrrolidine] | + (LOQ ≤ + <5%) | ++ (5% ≤ ++ <25%) | +++ (25% ≤ +++ <50%) | + (LOQ ≤ + <5%) | ++ (5% ≤ ++ <25%) | + (LOQ ≤ + <5%) | + (LOQ ≤ + <5%) | ++ (5% ≤ ++ <25%) | + (LOQ ≤ + <5%) | ++ (5% ≤ ++ <25%)
8 | Clc1ccc2c(c1)[C@@H]([C@@H]1CCCN1)OCC2 [Compound I-30, (S)-2-((S)-7-chloroisochroman-1-yl)pyrrolidine] | + (LOQ ≤ + <5%) | ++ (5% ≤ ++ <25%) | +++ (25% ≤ +++ <50%) | ++ (5% ≤ ++ <25%) | ++ (5% ≤ ++ <25%) | + (LOQ ≤ + <5%) | + (LOQ ≤ + <5%) | +++ (25% ≤ +++ <50%) | ++ (5% ≤ ++ <25%) | + (LOQ ≤ + <5%)
9 | Clc1ccc2c(c1)[C@H]([C@H]1CCCN1)OCC2 [Compound I-31, (R)-2-((R)-7-chloroisochroman-1-yl)pyrrolidine] | + (LOQ ≤ + <5%) | ++ (5% ≤ ++ <25%) | +++ (25% ≤ +++ <50%) | ++ (5% ≤ ++ <25%) | ++ (5% ≤ ++ <25%) | + (LOQ ≤ + <5%) | ++ (5% ≤ ++ <25%) | +++ (25% ≤ +++ <50%) | ++ (5% ≤ ++ <25%) | + (LOQ ≤ + <5%)
10 | Clc1ccc2c(c1)[C@@H]([C@H]1CCCN1)OCC2 [Compound I-32, (R)-2-((S)-7-chloroisochroman-1-yl)pyrrolidine] | + (LOQ ≤ + <5%) | +++ (25% ≤ +++ <50%) | ++ (5% ≤ ++ <25%) | ++ (5% ≤ ++ <25%) | ++ (5% ≤ ++ <25%) | + (LOQ ≤ + <5%) | + (LOQ ≤ + <5%) | +++ (25% ≤ +++ <50%) | ++ (5% ≤ ++ <25%) | + (LOQ ≤ + <5%)

Same assay, conditions: i.p. 15 min before behavioral test, most efficacious dose(s) of 3 doses

Row | Structure (SMILES) | XG: anxiogenic (probability that behavioral signature matches class)
11 | Cc1cccc2c1[C@H]([C@@H]1CCCN1)OCC2 [Compound I-22, (S)-2-((R)-8-methylisochroman-1-yl)pyrrolidine] | + (LOQ ≤ + <5%)
12 | Cc1cccc2c1[C@H]([C@H]1CCCN1)OCC2 [Compound I-23, (R)-2-((R)-8-methylisochroman-1-yl)pyrrolidine] | + (LOQ ≤ + <5%)
13 | Cc1cccc2c1[C@@H]([C@H]1CCCN1)OCC2 [Compound I-24, (R)-2-((S)-8-methylisochroman-1-yl)pyrrolidine] | + (LOQ ≤ + <5%)
14 | Cc1ccc2c(c1)[C@H]([C@@H]1CCCN1)OCC2 [Compound I-25, (S)-2-((R)-7-methylisochroman-1-yl)pyrrolidine] | + (LOQ ≤ + <5%)
15 | Cc1ccc2c(c1)[C@@H]([C@@H]1CCCN1)OCC2 [Compound I-26, (S)-2-((S)-7-methylisochroman-1-yl)pyrrolidine] | + (LOQ ≤ + <5%)
16 | Cc1ccc2c(c1)[C@@H]([C@H]1CCCN1)OCC2 [Compound I-27, (R)-2-((S)-7-methylisochroman-1-yl)pyrrolidine] | + (LOQ ≤ + <5%)
17 | Cc1ccc2c(c1)[C@H]([C@H]1CCCN1)OCC2 [Compound I-28, (R)-2-((R)-7-methylisochroman-1-yl)pyrrolidine] | + (LOQ ≤ + <5%)
18 | Clc1ccc2c(c1)[C@@H]([C@@H]1CCCN1)OCC2 [Compound I-30, (S)-2-((S)-7-chloroisochroman-1-yl)pyrrolidine] | + (LOQ ≤ + <5%)
19 | Clc1ccc2c(c1)[C@H]([C@H]1CCCN1)OCC2 [Compound I-31, (R)-2-((R)-7-chloroisochroman-1-yl)pyrrolidine] | + (LOQ ≤ + <5%)
20 | Clc1ccc2c(c1)[C@@H]([C@H]1CCCN1)OCC2 [Compound I-32, (R)-2-((S)-7-chloroisochroman-1-yl)pyrrolidine] | + (LOQ ≤ + <5%)
